# Values joined by “and” are separate entries in the source; they are usually repeats but may differ in a detail not shown here. Identical values can stand only once.
# Legend:
# Assay type in all cases: cell-based
# [1] = target: T1, PPARγ (Homo sapiens, UniProt P37231); assay: PPARγ transactivation activity (GAL4-hPPARγ LBD / UASx4-TK-LUC reporter in CV-1 cells); settings: for PPARγ transactivation activity: a relative value (control = 100%): compound at 10^−5 M, CV-1 cells, Table 25; for Emax: CV-1, in the manner as described in Example 9, Table 26, read-out: PPARγ (PPAR activating power)
# T1 construct: Receptor expression plasmid (GAL4-hPPARα, LBD GAL4-hPPARγ LBD, GAL4-hPPARδ LBD); expressed in transfected cells; host or cells: CV-1 cells
# T1 sequence (P37231 238-503 limits assumed): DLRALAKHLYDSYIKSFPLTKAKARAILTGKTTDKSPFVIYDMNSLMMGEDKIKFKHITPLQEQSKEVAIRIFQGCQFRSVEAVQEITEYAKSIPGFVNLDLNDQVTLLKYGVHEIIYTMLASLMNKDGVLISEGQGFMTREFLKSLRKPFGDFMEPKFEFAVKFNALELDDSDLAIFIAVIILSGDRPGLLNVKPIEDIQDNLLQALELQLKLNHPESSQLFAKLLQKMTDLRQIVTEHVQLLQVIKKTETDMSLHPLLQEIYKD
# Experimental: In the same manner, relative ligand activities to PPARδ and γ transactivation activitis are calculated (see the below-mentioned Example 9).
# (§1) (1) Measurement of PPARα,γ,δ Transactivation Activity
# (§2) PPARα,γ,δ transactivation activity of each compound [Examples 1-6 and known PPARδ agonist (L-16504: Berger, J., et al. (1999), J. Biol. Chem., 274:6718-6725)] was measured in the manner described below.
# (§3) CV-1 was obtained from Tohoku University Aging Medical Laboratory, Medical Cell Collection Center. All test compounds were dissolved in dimethylsulfoxide (DMSO) to give a test sample of 0.1% concentration.
# (§4) Receptor expression plasmid (GAL4-hPPARα, LBD GAL4-hPPARγ LBD, GAL4-hPPARδ LBD), Reporter plasmid (UASx4-TK-LUC), and β-galactosidase expression plasmid (βGAL) similar to Kliewer, S. A., et al., ((1992) Nature, 358:771-774) were employed.
# (§5) CV-1 cells were seeded in 24 well culture plates at 2×10^5 cells per well, and cultured for 24 hours using 4%-fetal bovine serum(FBS)-added OPTI-MEM I Reduced Serum Medium (Life Technologies, 500 μL/well). Subsequently, the cells were washed with non serum-added OPTI-MEM. To the washed cells were added DNA-containing solution [the following components were contained in the one well solution (250 μl): 0.03 μg of GAL4-hPPARδ LBD, 0.25 μg of UASx4-TK-LUC, 0.35 μg of βGAL, and 2 μL of lipofection reagent, DMRIE-C (Life Technologies). These components were dissolved in OPTI-MEM and allowed to stand for 30 minutes at room temperature]. The cells were incubated for 5 hours at 37° C.
# (§6) The cells were then incubated for 40 hours in 500 μL of fresh OPTI-MEM containing 4% FBS and the test compound (dissolved in 100% DMSO to reach a final concentration: 10^−4M or 10^−5M).
# (§7) The culture medium was removed and the cells were washed with PBS twice. Cell lysates were produced using a solubilizing buffer (25 mM Tris-PO4 (pH 7.8), 15%v/v glycerol, 2% CHAPS, 1% Lecithin, 1% BSA, 4 mM EGTA (pH 8.0), 8 mM MgCl2, 1 mM DTT). A portion (20 μL) of the solution was transferred onto a 96-well plate. Subsequently, 100 μL of luciferase substrate solution (Piccagene: available from Nippon Gene Co., Ltd.) was added, and a luminous intensity per one sec. (luciferase activity) was measured by means of MLR-100 type Microluminoreader (available from Corona Electrics Co., Ltd.). Further, the activity caused by […] incorporation which was incorporated into the cells simultaneously with the incorporation of the luciferase gene was measured, for correcting variation of luciferase activity by the addition of the compound, utilizing the transfection efficiency of the incorporated gene. β-Galactosidase activity was measured by the following method: 50 μL of the solubilized sample was placed on another 96-well plate; 10 μL of ONPG (2-nitrophenyl-β-galactopyranoside) solution was added; incubation was carried out for 5 minutes at room temperature; 50 μL of a reaction stopping solution (1M sodium carbonate solution) was added; and the absorbance at 414 nm was measured.
# [2] = target: T2, PPARα (Homo sapiens, UniProt Q07869); assay: PPARα transactivation activity (GAL4-hPPARα LBD / UASx4-TK-LUC reporter in CV-1 cells); settings: for PPARα transactivation activity: a relative value (control = 100%): CV-1 cells, Table 25; for Emax: CV-1, in the manner as described in Example 9, Table 26, read-out: PPARα (PPAR activating power)
# T2 construct: Receptor expression plasmid (GAL4-hPPARα, LBD GAL4-hPPARγ LBD, GAL4-hPPARδ LBD); expressed in transfected cells; host or cells: CV-1 cells
# T2 sequence (Q07869 239-466 limits assumed): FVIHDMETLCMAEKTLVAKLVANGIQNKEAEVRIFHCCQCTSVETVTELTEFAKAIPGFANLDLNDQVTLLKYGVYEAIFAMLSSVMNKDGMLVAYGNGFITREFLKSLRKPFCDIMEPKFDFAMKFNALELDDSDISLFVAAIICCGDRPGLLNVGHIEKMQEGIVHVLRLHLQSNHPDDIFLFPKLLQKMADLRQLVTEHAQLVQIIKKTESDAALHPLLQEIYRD
# Experimental: as §1, §2, §3, §4, §5, §6, §7
# [3] = target: T3, PPARδ (Homo sapiens, UniProt Q03181); assay: PPARδ transactivation activity (GAL4-hPPARδ LBD / UASx4-TK-LUC reporter in CV-1 cells); settings: for activity to PPARδ relative to activity to PPARα and γ (selectivity): GAL4-hPPAR LBD reporter, relative activities vs control reagents; for PPARδ transactivation activity: a relative value (control = 100%): compound at 10^−5 M, Table 25; for Emax: CV-1, 40 h, in the manner as described in Example 9, Table 26, read-out: PPARδ (PPAR activating power)
# T3 construct: A chimeric receptor expression plasmid (GAL4-hPPARδ LBD); expressed in transfected cells; host or cells: CV-1 cells
# T3 sequence (Q03181 211-439 limits assumed): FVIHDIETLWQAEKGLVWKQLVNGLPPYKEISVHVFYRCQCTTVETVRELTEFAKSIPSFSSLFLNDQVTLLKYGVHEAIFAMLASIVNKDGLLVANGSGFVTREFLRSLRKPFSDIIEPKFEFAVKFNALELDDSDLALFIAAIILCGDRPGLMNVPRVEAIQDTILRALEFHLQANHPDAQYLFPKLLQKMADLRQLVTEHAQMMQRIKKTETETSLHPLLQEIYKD
# Experimental: A chimeric receptor expression plasmid (GAL4-hPPARδ LBD), a reporter plasmid (UASx4-TK-LUC) and β-galactosidase (β-GAL) are transfected into CV-1 cells by utilizing a lipofection reagent DMRIE-C (Life Technologies).
# as §1
# CV-1 was obtained from Tohoku University Aging Medical Laboratory, Medical Cell Collection Center.
# as §5, §6, §7
PPARγ transactivation activity: a relative value (control = 100%) [1],PPARα transactivation activity: a relative value (control = 100%) ([2]; compound at 10^−5 M),PPARδ transactivation activity: a relative value (control = 100%) ([3]; CV-1 cells),Emax [1],Emax [2],Emax [3],SMILES,also measured
,,,2%,1%,58 ± 14%,"CCC(C)(Oc1ccc(C(=O)CCc2nc(-c3ccc(Cl)cc3Cl)oc2C(C)C)cc1)C(=O)O (stereo not drawn) [Example 7-5, 2-[4-[3-[2-(2,4-Dichlorophenyl)-5-isopropyl-4-oxazolyl]propionyl]phenyloxy]-2-methylbutyric acid]",
,,,19%,8%,96 ± 13%,"CC(C)c1oc(-c2cccc(Cl)c2Cl)nc1CCC(=O)c1ccc(OC(C)(C)C(=O)O)cc1 [Example 7-6, 2-[4-[3-[2-(2,3-Dichlorophenyl)-5-isopropyl-4-oxazolyl]propionyl]phenyloxy]-2-methylpropionic acid]","PPARδ activating effect (transactivation activity) as compared with L-165041 ([3]; CV-1 cells, GAL4-hPPARδ LBD, 40 hours incubation, luciferase activity with 10^-4 M L-165041 set to 100%): same or higher"
,,,26%,1%,58%,"CC(C)c1oc(-c2ccc(-c3ccccc3)cc2)nc1CCC(=O)c1ccc(OC(C)(C)C(=O)O)cc1 [Example 7-8, 2-[4-[3-[2-(4-Biphenylyl)-5-isopropyl-4-oxazolyl]-propionyl]phenyloxy]-2-methylpropionic acid]",
,,,5 ± 1%,8%,80 ± 5%,"CC(C)c1oc(-c2ccc3ccccc3c2O)nc1CCC(=O)c1ccc(OC(C)(C)C(=O)O)cc1 [Example 7-9, 2-[4-[3-[2-(1-Hydroxy-2-naphthyl)-5-isopropyl-4-oxazolyl]propionyl]phenyloxy]-2-methylpropionic acid]",
,,,1%,3%,70%,"CC(C)c1oc(-c2ccc(Cl)cc2Cl)nc1CC=Cc1ccc(OC(C)(C)C(=O)O)cc1 [Example 7-10, 2-[4-[3-[2-(2,4-Dichlorophenyl)-5-isopropyl-4-oxazolyl]-1-propenyl]phenyloxy]-2-methylpropionic acid]",
,,,18 ± 4%,29 ± 3%,85 ± 1%,"CC(C)c1oc(-c2cc3ccccc3cc2O)nc1CCC(=O)c1ccc(OC(C)(C)C(=O)O)cc1 [Example 7-11, 2-[4-[3-[2-(3-Hydroxy-2-naphthyl)-5-isopropyl-4-oxazolyl]propionyl]phenyloxy]-2-methylpropionic acid]",
,,,1 ± 0.03%,2 ± 1%,,"CCCc1c(OCCCOc2ccc(OCC(=O)O)cc2)ccc(C(C)=O)c1O [Example L-165041, reference compound]",

# The next lines start with the compound.
SMILES,PPARγ transactivation activity: a relative value (control = 100%) [1],PPARα transactivation activity: a relative value (control = 100%) ([2]; compound at 10^−5 M),PPARδ transactivation activity: a relative value (control = 100%) ([3]; CV-1 cells),Emax [1],Emax [2],Emax [3],also measured
"CC(C)c1oc(-c2ccccc2Cl)nc1CCC(=O)c1ccc(OC(C)(C)C(=O)O)cc1 [Example 1, 2-[4-[3-[2-(2-Chlorophenyl)-5-isopropyl-4-oxazolyl]propionyl]phenyloxy]-2-methylpropionic acid]",27 ± 3%,9 ± 1%,80 ± 10%,,,,activity to PPARδ relative to activity to PPARα and γ (selectivity) ([3]; CV-1 cells): selectively higher
"CCCc1oc(-c2ccc(Cl)cc2)nc1CCC(=O)c1ccc(OC(C)(C)C(=O)O)cc1 [Example 2, 2-[4-[3-[2-(4-Chlorophenyl)-5-propyl-4-oxazolyl]propionyl]phenyloxy]-2-methylpropionic acid]",51 ± 3%,75 ± 4%,93 ± 4%,,,,
"CC(C)c1oc(-c2ccccc2Cl)nc1CCC(=NO)c1ccc(OC(C)(C)C(=O)O)cc1 [Example 3, 2-[4-[3-[2-(2-Chlorophenyl)-5-isopropyl-4-oxazolyl](1-hydroxyimino)propyl]phenyloxy]-2-methyl-propionic acid]",16%,10%,19%,,,,
"CC(C)c1oc(-c2ccccc2Cl)nc1CCC(O)c1ccc(OC(C)(C)C(=O)O)cc1 (stereo not drawn) [Example 4, 2-[4-[3-[2-(2-Chlorophenyl)-5-isopropyl-4-oxazolyl]-1-hydroxypropyl]phenyloxy]-2-methylpropionic acid]",26%,35%,23%,,,,
"CC(C)c1oc(-c2ccccc2Cl)nc1CC=Cc1ccc(OC(C)(C)C(=O)O)cc1 [Example 5, 2-[4-[3-[2-(2-Chlorophenyl)-5-isopropyl-4-oxazolyl]-1-propenyl]phenyloxy]-2-methylpropionic acid]",36 ± 3%,52 ± 7%,114 ± 1%,,,,activity to PPARδ relative to activity to PPARα and γ (selectivity) ([3]; CV-1 cells): selectively higher
"CC(C)c1oc(-c2ccccc2Cl)nc1CCCc1ccc(OC(C)(C)C(=O)O)cc1 [Example 6, 2-[4-[3-[2-(2-Chlorophenyl)-5-isopropyl-4-oxazolyl]propyl]phenyloxy]-2-methylpropionic acid]",93 ± 1%,98 ± 6%,109 ± 10%,,,,
"Cc1nc(-c2ccc(C(F)(F)F)cc2)sc1CCC(=O)c1ccc(OC(C)(C)C(=O)O)cc1 [Example 8-1, 2-[4-[3-[2-[(4-Trifluoromethyl)phenyl]-4-methyl-5-thiazolyl]propionyl]phenyloxy]-2-methylpropionic acid]",,,,,,,"PPARα transactivation activity: a relative value at 10^−5 M (control = 100%) ([2]; compound at 10^−5 M, control WY-14643 (10^−4M), Table 27): 129% and 126% and 120% and 166%"

# — patent US6787552B2, “PPAR delta activators” (Nippon Chemiphar Co., Ltd., priority 2000, dated 2004)
